Values of other authors in patent US11564907B2, “Methods and compositions for the treatment of retinopathy and other ocular diseases” (Lankenau Institute for Medical Research, priority 2014, dated 2023).

Tested on: allogeneic mouse concepti
Conditions: pregnant mice; Munn et al. (1998), Mellor et al. (2001)

For `Cn1cc(C[C@H](N)C(=O)O)c2ccccc21` [1-methyl-tryptophan], the “rejection of allogeneic mouse concepti” value is listed as “could elicit T cell-dependent rejection of allogeneic mouse concepti”.
